Measured values from ChEMBL document CHEMBL3616467, “One-pot synthesis of new triazole--Imidazo[2,1-b][1,3,4]thiadiazole hybrids via click chemistry and evaluation of their antitubercular activity” (Bioorg Med Chem Lett, 2015).
Converted amounts (≈) assume the structure as drawn.

Assays:
[1] = tested on: Mycobacterium tuberculosis; experiment: Antitubercular activity against Mycobacterium tuberculosis H37Rv ATCC 27294 after 28 days by agar dilution method; format: functional; conditions: H37Rv ATCC 27294, 672 h
[2] = Cytotoxicity against mouse NIH/3T3 cells assessed as growth inhibition at 50 ug/ml after 48 hrs by MTT assay relative to control; format: cell-based, NIH3T3; conditions: read-out: GI

| Compound | MIC [1] | inhibition at 48 h, 50 ug/ml [2] |
| --- | --- | --- |
| Cc1ccc(-c2nc3sc(C)nn3c2COCc2cn(Cc3ccccc3F)nn2)cc1 | 50 µg/mL (≈ 111 µM) | – |
| Cc1nn2c(COCc3cn(CC(=O)O)nn3)c(-c3ccc(Cl)cc3)nc2s1 | 50 µg/mL (≈ 119 µM) | – |
| COc1ccc(-c2nc3sc(C)nn3c2COCc2cn(Cc3ccccc3F)nn2)cc1 | 25 µg/mL (≈ 53.8 µM) | – |
| COc1ccc(-c2nc3sc(C)nn3c2COCc2cn(Cc3ccccc3)nn2)cc1 | 3.12 µg/mL (≈ 7 µM) | 22.7% |
| CCn1cc(COCc2c(-c3ccc(C)cc3)nc3sc(C)nn23)nn1 | 25 µg/mL (≈ 67.8 µM) | – |
| Cc1nn2c(COCc3cn(C(C)C)nn3)c(-c3ccc(Cl)cc3)nc2s1 | 50 µg/mL (≈ 124 µM) | – |
| COc1ccc(-c2nc3sc(C)nn3c2COCc2cn(Cc3ccc(F)cc3)nn2)cc1 | 12.5 µg/mL (≈ 26.9 µM) | 19.1% |
| CCOC(=O)Cn1cc(COCc2c(-c3ccc(OC)cc3)nc3sc(C)nn23)nn1 | 50 µg/mL (≈ 113 µM) | – |
| Cc1nn2c(COCc3cn(Cc4ccc(F)cc4)nn3)c(-c3ccc(Cl)cc3)nc2s1 | 25 µg/mL (≈ 53.3 µM) | – |
| Cc1nn2c(COCc3cn(Cc4ccccc4F)nn3)c(-c3ccc(Cl)cc3)nc2s1 | 50 µg/mL (≈ 107 µM) | – |
| Cc1nn2c(COCc3cn(Cc4ccccc4)nn3)c(-c3ccc(Cl)cc3)nc2s1 | 25 µg/mL (≈ 55.4 µM) | – |
| CCn1cc(COCc2c(-c3ccc(OC)cc3)nc3sc(C)nn23)nn1 | 25 µg/mL (≈ 65 µM) | – |
| CCn1cc(COCc2c(-c3ccc(Cl)cc3)nc3sc(C)nn23)nn1 | 3.12 µg/mL (≈ 8.04 µM) | 20.1% |
| Cc1nn2c(COCc3cn(CC#N)nn3)c(-c3ccc(Cl)cc3)nc2s1 | 6.25 µg/mL (≈ 15.6 µM) | 27.3% |
| NC(=O)c1cnccn1 [PYRAZINAMIDE] | 50 µg/mL (≈ 406 µM) | – |
| CC[C@@H](CO)NCCN[C@@H](CC)CO [ETHAMBUTOL] | 3.12 µg/mL (≈ 15.3 µM) | – |
| NNC(=O)c1ccncc1 [ISONIAZID] | 0.1 µg/mL (≈ 0.729 µM) | – |
| CCOC(=O)Cn1cc(COCc2c(-c3ccc(C)cc3)nc3sc(C)nn23)nn1 | 50 µg/mL (≈ 117 µM) | – |
| Cc1ccc(-c2nc3sc(C)nn3c2COCc2cn(Cc3ccc(F)cc3)nn2)cc1 | 50 µg/mL (≈ 111 µM) | – |
| Cc1ccc(-c2nc3sc(C)nn3c2COCc2cn(Cc3ccccc3)nn2)cc1 | 25 µg/mL (≈ 58.1 µM) | – |
| COc1ccc(-c2nc3sc(C)nn3c2COCc2cn(CC#N)nn2)cc1 | 50 µg/mL (≈ 126 µM) | – |
| CCOC(=O)Cn1cc(COCc2c(-c3ccc(Cl)cc3)nc3sc(C)nn23)nn1 | 12.5 µg/mL (≈ 28 µM) | 28.2% |
| Cc1ccc(-c2nc3sc(C)nn3c2COCc2cn(CC#N)nn2)cc1 | 25 µg/mL (≈ 65.9 µM) | – |
